Experimental data: PMC10885153, “Membrane Permeability in a Large Macrocyclic Peptide Driven by a Saddle-Shaped Conformation” (Journal of the American Chemical Society, 2024)
Positions of bridges follow the written chain, without caps; N, C: chain ends. Non-standard residues stand in square brackets, D forms with d. Residues, ends and D or L forms follow the SMILES beside them. Cha = N[C@@H](CC1CCCCC1)C(=O)O; NMeAbu = CC[C@H](NC)C(=O)O; NMeC = CN[C@@H](CS)C(=O)O; NMeA = CN[C@@H](C)C(=O)O; Nva = CCC[C@H](N)C(=O)O; Abu = CC[C@H](N)C(=O)O; NPrGly = CCCNCC(=O)O; NEtG = CCNCC(=O)O

Details: PAMPA, 10 µM, pH 7.4
In the case of `CCCN1CC(=O)N[C@@H](CC2CCCCC2)C(=O)N(C)[C@@H](C)C(=O)N[C@@H](CC(C)C)C(=O)N(C)[C@H](C(=O)OCC)CSCC(=O)N[C@@H](CC(C)C)C(=O)N(C)[C@@H](C)C(=O)N[C@@H](CC(C)C)C(=O)N2CCC[C@@H]2C1=O` [LA12, O=C(N(C)[C@H](C(OCC)=O)CSCC(N[C@H](C(N(C)[C@@H](C)C(N[C@@H](CC(C)C)C(N1[C@H](CCC1)C(N(CCC)CC(N[C@H]2CC3CCCCC3)=O)=O)=O)=O)=O)CC(C)C)=O)[C@H](CC(C)C)NC([C@H](C)N(C)C2=O)=O] ({CH2CO}-L[NMeA]L[dP][NPrGly][Cha][NMeA]L[NMeC]-OEt; thioether N-9), the “%R_avg” value is reported as 9.2% and the Pe_avg is reported as 0 ×10⁻⁶ cm/s.
In the case of `CCC[C@@H]1NC(=O)CN(CC)C(=O)[C@H](CC(C)C)NC(=O)CSC[C@@H](C(=O)OCC)N(C)C(=O)[C@H](CC(C)C)NC(=O)[C@H](C)N(C)C(=O)[C@H](CC)NC(=O)[C@H](C)N(C)C(=O)[C@H]2CCCN2C1=O` [LB01, O=C(N(C)[C@H](C(OCC)=O)CSCC(N[C@H](C1=O)CC(C)C)=O)[C@H](CC(C)C)NC([C@H](C)N(C)C([C@H](CC)NC([C@H](C)N(C)C([C@@H]2N(C([C@H](CCC)NC(CN1CC)=O)=O)CCC2)=O)=O)=O)=O] ({CH2CO}-L[NEtG][Nva][dP][NMeA][Abu][NMeA]L[NMeC]-OEt; thioether N-9), the “%R_avg” value is reported as 62.4%.
For `CCC[C@@H]1NC(=O)CN(CCC)C(=O)[C@H](CC(C)C)NC(=O)CSC[C@@H](C(=O)OCC)N(C)C(=O)[C@H](CC(C)C)NC(=O)[C@H](C)N(C)C(=O)[C@H](CC)NC(=O)[C@H](C)N(C)C(=O)[C@H]2CCCN2C1=O` [LB03, O=C(N(C)[C@H](C(OCC)=O)CSCC(N[C@H](C1=O)CC(C)C)=O)[C@H](CC(C)C)NC([C@H](C)N(C)C([C@H](CC)NC([C@H](C)N(C)C([C@@H]2N(C([C@H](CCC)NC(CN1CCC)=O)=O)CCC2)=O)=O)=O)=O] ({CH2CO}-L[NPrGly][Nva][dP][NMeA][Abu][NMeA]L[NMeC]-OEt; thioether N-9), the “%R_avg” value was 61.4%.
For `CCOC(=O)[C@@H]1CSCC(=O)N[C@@H](CC(C)C)C(=O)N(CC)CC(=O)N[C@@H](CC(C)C)C(=O)N2CCC[C@@H]2C(=O)N(C)[C@@H](C)C(=O)N[C@@H](CC(C)C)C(=O)N(C)[C@@H](C)C(=O)N[C@@H](CC(C)C)C(=O)N1C` [LB06, O=C(N(C)[C@H](C(OCC)=O)CSCC(N[C@H](C1=O)CC(C)C)=O)[C@H](CC(C)C)NC([C@H](C)N(C)C([C@H](CC(C)C)NC([C@H](C)N(C)C([C@@H]2N(C([C@H](CC(C)C)NC(CN1CC)=O)=O)CCC2)=O)=O)=O)=O] ({CH2CO}-L[NEtG]L[dP][NMeA]L[NMeA]L[NMeC]-OEt; thioether N-9), the “%R_avg” value was 12.6%.
With `CCOC(=O)[C@@H]1CSCC(=O)N[C@@H](CC(C)C)C(=O)N(CC)CC(=O)N[C@@H](CC(C)C)C(=O)N2CCC[C@@H]2C(=O)N(C)[C@@H](C)C(=O)N[C@@H](CC2CCCCC2)C(=O)N(C)[C@@H](C)C(=O)N[C@@H](CC(C)C)C(=O)N1C` [LB10, O=C(N(C)[C@H](C(OCC)=O)CSCC(N[C@H](C1=O)CC(C)C)=O)[C@H](CC(C)C)NC([C@H](C)N(C)C([C@H](CC2CCCCC2)NC([C@H](C)N(C)C([C@@H]3N(C([C@H](CC(C)C)NC(CN1CC)=O)=O)CCC3)=O)=O)=O)=O] ({CH2CO}-L[NEtG]L[dP][NMeA][Cha][NMeA]L[NMeC]-OEt; thioether N-9) the “%R_avg” value was 8.0%.
For `CCC[C@@H]1NC(=O)[C@H](C)N(C)C(=O)[C@H](CC(C)C)NC(=O)CSC[C@@H](C(=O)OCC)N(C)C(=O)[C@H](CC(C)C)NC(=O)[C@H](C)N(C)C(=O)[C@H](CC)NC(=O)[C@H](CC)N(C)C(=O)[C@H]2CCCN2C1=O` [LC01, O=C(N(C)[C@H](C(OCC)=O)CSCC(N[C@H](C(N(C)[C@@H](C)C(N[C@@H](CCC)C(N1[C@H](CCC1)C(N(C)[C@@H](CC)C(N[C@H]2CC)=O)=O)=O)=O)=O)CC(C)C)=O)[C@H](CC(C)C)NC([C@H](C)N(C)C2=O)=O] ({CH2CO}-L[NMeA][Nva][dP][NMeAbu][Abu][NMeA]L[NMeC]-OEt; thioether N-9), the “%R_avg” value was 30.1%.
